From patent publication US9346794B1, “Substituted 4-pyridones and their use as inhibitors of neutrophil elastase activity” (Boehringer Ingelheim International GmbH, priority 2012, dated 2016) come the findings set out here.

Human neutrophil elastase, sequence (P08246 30-247): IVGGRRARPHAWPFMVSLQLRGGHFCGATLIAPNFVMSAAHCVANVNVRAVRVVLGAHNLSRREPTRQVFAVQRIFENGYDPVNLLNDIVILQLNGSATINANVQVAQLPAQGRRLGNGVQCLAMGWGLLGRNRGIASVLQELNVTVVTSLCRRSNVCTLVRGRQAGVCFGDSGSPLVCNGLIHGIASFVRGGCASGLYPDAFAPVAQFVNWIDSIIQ

The test addresses Human neutrophil elastase (Homo sapiens (Human), UniProt P08246). Put plainly: Human Neutrophil Elastase Assay. Particulars: substrate MeOSuc-Ala-Ala-Pro-Val-AMC 250 μM, fluorescence, pH 7.5. The class given is biochemical. How it is done:
Human Neutrophil Elastase Assay
All other materials were of the highest grade commercially available.
The following buffers were used: Compound buffer: 100 mM Tris, 500 mM NaCl, adjusted to pH 7.5; Assay buffer: 100 mM Tris, 500 mM NaCl, adjusted to pH 7.5, containing 0.01% BSA.
Assay conditions: Test compounds were prediluted in DMSO and subsequently in compound buffer (5% DMSO final). […] After inactivation of the enzyme, fluorescence intensities were measured at 380 nm excitation and 460 nm emission wavelengths.
Each plate contains wells with a high value control (DMSO+enzyme+substrate) and wells with a low value control (DMSO+inactivated enzyme+substrate). IC50 values were estimated using a sigmoidal concentration response curve with variable slope. Means of low values were taken as 0%, means of high values as 100%. IC50 values of selected compound in the Neutrophil Elastase assay: […]
`Cc1noc(-n2cc(C(=O)NCc3ccc(S(C)(=O)=NC#N)cc3)c(=O)c(-c3cccc(C(F)(F)F)c3)c2C)c1C` (stereo not drawn) [Example 49]: it took 7.3 nM to reach half-maximal inhibition (IC50).
As for `CCn1cc(C(=O)NCc2ccc(S(C)(=O)=NC#N)cc2)c(=O)c(-c2cccc(C(F)(F)F)c2)c1C` (single isomer, unassigned) [Example 4B, 1-Ethyl-6-methyl-4-oxo-5-(3-trifluoromethyl-phenyl)-1,4-dihydro-pyridine-3-carboxylic acid 4-(N-cyano-S-methylsulfonimidoyl)-benzylamide], half-maximal inhibition (IC50) was put at 1.6 nM.
As to `Cc1c(-c2cccc(C(F)(F)F)c2)c(=O)c(C(=O)NCc2ccc(S(=O)(=NC#N)C3CC3)cc2)cn1C(C)C` (stereo not drawn) [Example 63, 1-Isopropyl-6-methyl-4-oxo-5-(3-trifluoromethyl-phenyl)-1,4-dihydro-pyridine-3-carboxylic acid 4-(S-cyclopropyl-N-cyanosulfonimidoyl)-benzylamide], the IC50 (as a rule, the concentration at which inhibition is half-maximal) was 1.4 nM.
